Measurements reported in patent publication EP0465716A1, “Optically active thiazetoquino-line-3-carboxylic acid compound, method for preparation thereof, and a pharmaceutical composition comprising the same” (priority 1990, dated 1992).
In brackets after ≈: the same amount, converted by molar mass.

How the values were obtained:
Format in all cases: cell-based
[1] = tested on: Enterobacter cloacae 963; experiment: MIC, twofold agar dilution method (standard laboratory strain); details: Enterobacter cloacae 963, Gram -; 10^6 cfu/ml; 18 hrs at 37 °C
Description: (§1) Overnight cultures in Mueller-Hinton broth were suspended by buffered saline gelatin. One loopful of the bacterial suspension (10⁶ or 10⁸ colony-forming units/ml) was incubated onto the plates containing test compounds. The plates were incubated for 18 hrs at 37 °C. The MIC was defined by the lowest concentration of the drug that inhibited visible growth of bacteria.

[2] = tested on: Escherichia coli NIHJ JC-2; experiment: as above; details: NIHJJC2; Escherichia coli NIHJ JC-2, Gram -; 10^6 cfu/ml; 18 hrs at 37 °C
Description: as §1

[3] = tested on: Pseudomonas aeruginosa IFO 3445; experiment: as above; details: IFO3445; Pseudomonas aeruginosa IFO 3445, Gram -; 10^6 cfu/ml; 18 hrs at 37 °C
Description: as §1

[4] = tested on: Serratia marcescens IAM 1184; experiment: as above; details: IAM1184; Serratia marcescens IAM 1184, Gram -; 10^6 cfu/ml; 18 hrs at 37 °C
Description: as §1

[5] = tested on: Staphylococuss aureus FDA 209PJC-1; experiment: as above; details: Staphylococuss aureus FDA 209PJC-1, Gram +; 10^6 cfu/ml; 18 hrs at 37 °C
Description: as §1

[6] = tested on: Klebsiella pneumoniae PCI-602; experiment: as above; details: PCI602; Klebsiella pneumoniae PCI-602, Gram -; 10^6 cfu/ml; 18 hrs at 37 °C; read-out: MIC
Description: Minimum inhibitory concentrations (MIC) of test compounds were determined by the twofold agar dilution method (Chemotherapy, 29(1), 76(1981)). Overnight cultures in Mueller-Hinton broth were suspended by buffered saline gelatin. One loopful of the bacterial suspension (10⁶ or 10⁸ colony-forming units/ml) was incubated onto the plates containing test compounds. The plates were incubated for 18 hrs at 37 °C. The MIC was defined by the lowest concentration of the drug that inhibited visible growth of bacteria.

[7] = tested on: Acinetobacter calcoaceticus HNR 904; experiment: MIC, twofold agar dilution method (clinically isolated strain); details: HNR904; Acinetobacter calcoaceticus HNR 904, Gram -; 10^6 cfu/ml; 18 hrs at 37 °C
Description: as §1

[8] = tested on: Acinetobacter calcoaceticus HNR 916; experiment: as above; details: HNR916; Acinetobacter calcoaceticus HNR 916, Gram -; 10^6 cfu/ml; 18 hrs at 37 °C
Description: as §1

[9] = tested on: Acinetobacter calcoaceticus HNR 939; experiment: as above; details: HNR939; Acinetobacter calcoaceticus HNR 939, Gram -; 10^6 cfu/ml; 18 hrs at 37 °C
Description: as §1

[10] = tested on: Enterobacter cloacae HNR 1939; experiment: as above; details: HNR1939; Enterobacter cloacae HNR 1939, Gram -; 10^6 cfu/ml; 18 hrs at 37 °C
Description: as §1

[11] = tested on: Enterobacter cloacae HNR 1941; experiment: as above; details: HNR1941; Enterobacter cloacae HNR 1941, Gram -; 10^6 cfu/ml; 18 hrs at 37 °C
Description: as §1

[12] = tested on: Enterobacter cloacae HNR 1946; experiment: as above; details: HNR1946; Enterobacter cloacae HNR 1946, Gram -; 10^6 cfu/ml; 18 hrs at 37 °C
Description: as §1

[13] = tested on: Enterococcus faecalis HPC 948; experiment: as above; details: HPC948; Enterococcus faecalis HPC 948, Gram +; 10^6 cfu/ml; 18 hrs at 37 °C
Description: as §1

[14] = tested on: Enterococcus faecalis HPC 975; experiment: as above; details: HPC975; Enterococcus faecalis HPC 975, Gram +; 10^6 cfu/ml; 18 hrs at 37 °C
Description: as §1

[15] = tested on: Enterococcus faecalis HPC 984; experiment: as above; details: HPC984; Enterococcus faecalis HPC 984, Gram +; 10^6 cfu/ml; 18 hrs at 37 °C
Description: as §1

[16] = tested on: Klebsiella pneumoniae HNR 828; experiment: as above; details: HNR828; Klebsiella pneumoniae HNR 828, Gram -; 10^6 cfu/ml; 18 hrs at 37 °C
Description: as §1

[17] = tested on: Klebsiella pneumoniae HNR 858; experiment: as above; details: HNR858; Klebsiella pneumoniae HNR 858, Gram -; 10^6 cfu/ml; 18 hrs at 37 °C
Description: as §1

[18] = tested on: Klebsiella pneumoniae HNR 869; experiment: as above; details: HNR869; Klebsiella pneumoniae HNR 869, Gram -; 10^6 cfu/ml; 18 hrs at 37 °C
Description: as §1

[19] = tested on: Pseudomonas aeruginosa HNR 1472; experiment: as above; details: HNR1472; Pseudomonas aeruginosa HNR 1472, Gram -; 10^6 cfu/ml; 18 hrs at 37 °C
Description: as §1

[20] = tested on: Pseudomonas aeruginosa HNR 1489; experiment: as above; details: HNR1489; Pseudomonas aeruginosa HNR 1489, Gram -; 10^6 cfu/ml; 18 hrs at 37 °C
Description: as §1

[21] = tested on: Pseudomonas aeruginosa HNR 1537; experiment: as above; details: HNR1537; Pseudomonas aeruginosa HNR 1537, Gram -; 10^6 cfu/ml; 18 hrs at 37 °C
Description: as §1

[22] = tested on: Serratia marcescens HNR 1544; experiment: as above; details: HNR1544; Serratia marcescens HNR 1544, Gram -; 10^6 cfu/ml; 18 hrs at 37 °C
Description: as §1

[23] = tested on: Serratia marcescens HNR 1767; experiment: as above; details: HNR1767; Serratia marcescens HNR 1767, Gram -; 10^6 cfu/ml; 18 hrs at 37 °C
Description: as §1

[24] = tested on: Serratia marcescens HNR 1792; experiment: as above; details: HNR1792; Serratia marcescens HNR 1792, Gram -; 10^6 cfu/ml; 18 hrs at 37 °C
Description: as §1

[25] = tested on: Staphylococcuss aureus HPC 292; experiment: as above; details: Staphylococcuss aureus HPC 292, Gram +; 10^6 cfu/ml; 18 hrs at 37 °C
Description: as §1

[26] = tested on: Staphylococcuss aureus HPC 308; experiment: as above; details: Staphylococcuss aureus HPC 308, Gram +; 10^6 cfu/ml; 18 hrs at 37 °C
Description: as §1

[27] = tested on: Staphylococcuss aureus HPC 527; experiment: as above; details: Staphylococcuss aureus HPC 527, Gram +; 10^6 cfu/ml; 18 hrs at 37 °C
Description: as §1

Structure (SMILES) | MIC [1] | MIC [2] | MIC [3] | MIC [4] | MIC [5] | MIC [6] | MIC [7] | MIC [8] | MIC [9] | MIC [10] | MIC [11] | MIC [12] | MIC [13] | MIC [14] | MIC [15] | MIC [16] | MIC [17] | MIC [18] | MIC [19] | MIC [20] | also measured
CC1Sc2c(C(=O)O)c(=O)c3cc(F)c(N4CC[C@@H](N)C4)c(F)c3n21 (single isomer, unassigned) [Example 26] | 0.05 µg/mL (≈ 0.136 µM) | 0.025 µg/mL (≈ 0.068 µM) | 0.1 µg/mL (≈ 0.272 µM) | 0.05 µg/mL (≈ 0.136 µM) | 0.05 µg/mL (≈ 0.136 µM) | 0.012 µg/mL (≈ 0.0327 µM) | 25 µg/mL (≈ 68 µM) | 0.1 µg/mL (≈ 0.272 µM) | 0.78 µg/mL (≈ 2.12 µM) | 0.1 µg/mL (≈ 0.272 µM) | 3.13 µg/mL (≈ 8.52 µM) | 0.2 µg/mL (≈ 0.544 µM) | 0.39 µg/mL (≈ 1.06 µM) | 3.13 µg/mL (≈ 8.52 µM) | 0.1 µg/mL (≈ 0.272 µM) | 1.56 µg/mL (≈ 4.25 µM) | 0.2 µg/mL (≈ 0.544 µM) | 0.78 µg/mL (≈ 2.12 µM) | 6.25 µg/mL (≈ 17 µM) | 0.1 µg/mL (≈ 0.272 µM) | MIC [21]: 6.25 µg/mL (≈ 17 µM); MIC [22]: 0.05 µg/mL (≈ 0.136 µM); MIC [23]: 6.25 µg/mL (≈ 17 µM); MIC [24]: 1.56 µg/mL (≈ 4.25 µM); MIC [25]: 3.13 µg/mL (≈ 8.52 µM); MIC [26]: 0.78 µg/mL (≈ 2.12 µM); MIC [27]: 0.05 µg/mL (≈ 0.136 µM)
CC1Sc2c(C(=O)O)c(=O)c3cc(F)c(N4CC[C@@H](N)C4)c(Cl)c3n21 (single isomer, unassigned) [Example 17] | 0.05 µg/mL (≈ 0.13 µM) | 0.025 µg/mL (≈ 0.0651 µM) | 0.1 µg/mL (≈ 0.261 µM) | 0.05 µg/mL (≈ 0.13 µM) | 0.025 µg/mL (≈ 0.0651 µM) | 0.025 µg/mL (≈ 0.0651 µM) | 12.5 µg/mL (≈ 32.6 µM) | 0.1 µg/mL (≈ 0.261 µM) | 0.78 µg/mL (≈ 2.03 µM) | 0.1 µg/mL (≈ 0.261 µM) | 1.56 µg/mL (≈ 4.06 µM) | 0.2 µg/mL (≈ 0.521 µM) | 0.39 µg/mL (≈ 1.02 µM) | 1.56 µg/mL (≈ 4.06 µM) | 0.1 µg/mL (≈ 0.261 µM) | 1.56 µg/mL (≈ 4.06 µM) | 0.2 µg/mL (≈ 0.521 µM) | 0.78 µg/mL (≈ 2.03 µM) | 3.13 µg/mL (≈ 8.15 µM) | 0.2 µg/mL (≈ 0.521 µM) | MIC [21]: 6.25 µg/mL (≈ 16.3 µM); MIC [22]: 0.05 µg/mL (≈ 0.13 µM); MIC [23]: 6.25 µg/mL (≈ 16.3 µM); MIC [24]: 1.56 µg/mL (≈ 4.06 µM); MIC [25]: 1.56 µg/mL (≈ 4.06 µM); MIC [26]: 0.78 µg/mL (≈ 2.03 µM); MIC [27]: 0.05 µg/mL (≈ 0.13 µM)
NC1CCN(c2c(F)cc3c(=O)c(C(=O)O)c4n(c3c2F)CS4)C1 (stereo not drawn) [Ref. Drug E, 7-(3-amino-1-pyrrolidinyl)-6,8-difluoro-4-oxo-1H,4H-[1,3]thiazeto[3,2-a]quinoline-3-carboxylic acid] | 0.1 µg/mL (≈ 0.283 µM) | 0.1 µg/mL (≈ 0.283 µM) | 0.2 µg/mL (≈ 0.566 µM) | 0.2 µg/mL (≈ 0.566 µM) | 0.1 µg/mL (≈ 0.283 µM) | 0.05 µg/mL (≈ 0.142 µM) | > 100 µg/mL | 0.39 µg/mL (≈ 1.1 µM) | > 100 µg/mL | 0.78 µg/mL (≈ 2.21 µM) | > 100 µg/mL | 1.56 µg/mL (≈ 4.41 µM) | 50 µg/mL (≈ 142 µM) | > 100 µg/mL | 0.78 µg/mL (≈ 2.21 µM) | 50 µg/mL (≈ 142 µM) | 0.78 µg/mL (≈ 2.21 µM) | 50 µg/mL (≈ 142 µM) | > 100 µg/mL | 0.39 µg/mL (≈ 1.1 µM) | MIC [21]: > 100 µg/mL; MIC [22]: 0.1 µg/mL (≈ 0.283 µM); MIC [23]: > 100 µg/mL; MIC [24]: > 100 µg/mL; MIC [25]: > 100 µg/mL; MIC [26]: 100 µg/mL (≈ 283 µM); MIC [27]: 0.2 µg/mL (≈ 0.566 µM)
CC1Sc2c(C(=O)O)c(=O)c3cc(F)c(N4CCNCC4)cc3n21 (stereo not drawn) [Ref. Drug B, 6-fluoro-1-methyl-4-oxo-7-(1-piperazinyl)-1H,4H-[1,3]thiazeto[3,2-a]quinoline-3-carboxylic acid] | 0.05 µg/mL (≈ 0.143 µM) | 0.025 µg/mL (≈ 0.0716 µM) | 0.2 µg/mL (≈ 0.572 µM) | 0.05 µg/mL (≈ 0.143 µM) | 0.1 µg/mL (≈ 0.286 µM) | 0.012 µg/mL (≈ 0.0343 µM) | > 100 µg/mL | 0.78 µg/mL (≈ 2.23 µM) | 6.25 µg/mL (≈ 17.9 µM) | 0.2 µg/mL (≈ 0.572 µM) | 12.5 µg/mL (≈ 35.8 µM) | 0.39 µg/mL (≈ 1.12 µM) | 6.25 µg/mL (≈ 17.9 µM) | 50 µg/mL (≈ 143 µM) | 0.78 µg/mL (≈ 2.23 µM) | 1.56 µg/mL (≈ 4.46 µM) | 0.2 µg/mL (≈ 0.572 µM) | 0.78 µg/mL (≈ 2.23 µM) | 6.25 µg/mL (≈ 17.9 µM) | 0.1 µg/mL (≈ 0.286 µM) | MIC [21]: 6.25 µg/mL (≈ 17.9 µM); MIC [22]: 0.05 µg/mL (≈ 0.143 µM); MIC [23]: 50 µg/mL (≈ 143 µM); MIC [24]: 6.25 µg/mL (≈ 17.9 µM); MIC [25]: 50 µg/mL (≈ 143 µM); MIC [26]: 25 µg/mL (≈ 71.6 µM); MIC [27]: 0.39 µg/mL (≈ 1.12 µM)
